This series concerns CCRIS mutagenicity, Ames/micronucleus/aberration tests. The series is described as follows: CCRIS mutagenicity studies.
Where [1] appears, read: Test System: AMES SALMONELLA TYPHIMURIUM, Strain/Indicator: TA98, Metabolic Activation: NONE.
The mark [2] stands for this setting: Test System: AMES SALMONELLA TYPHIMURIUM, Strain/Indicator: TA98, Metabolic Activation: RAT, LIVER, S-9, AROCLOR 1254.
Where [3] appears, read: Test System: AMES SALMONELLA TYPHIMURIUM, Strain/Indicator: TA100, Metabolic Activation: NONE.
The mark [4] stands for this setting: Test System: AMES SALMONELLA TYPHIMURIUM, Strain/Indicator: TA100, Metabolic Activation: RAT, LIVER, S-9, AROCLOR 1254.
Setting [5] is: Test System: AMES SALMONELLA TYPHIMURIUM, Strain/Indicator: TA102, Metabolic Activation: NONE.
The mark [6] stands for this setting: Test System: AMES SALMONELLA TYPHIMURIUM, Strain/Indicator: TA102, Metabolic Activation: RAT, LIVER, S-9, AROCLOR 1254.
[7] abbreviates: Test System: AMES SALMONELLA TYPHIMURIUM, Strain/Indicator: TA98, Metabolic Activation: NONE, Method: STANDARD PLATE.
Where [8] appears, read: Test System: AMES SALMONELLA TYPHIMURIUM, Strain/Indicator: TA100, Metabolic Activation: NONE, Method: STANDARD PLATE.
[9] abbreviates: Test System: AMES SALMONELLA TYPHIMURIUM, Strain/Indicator: TA1535, Metabolic Activation: NONE, Method: STANDARD PLATE.
Where [10] appears, read: Test System: AMES SALMONELLA TYPHIMURIUM, Strain/Indicator: TA1537, Metabolic Activation: NONE, Method: STANDARD PLATE.

The source made the active and inactive calls. No rule for the calls is given here.

As for `C#CCO`, the mutagenic call was “inactive; negative” (End Point: In vivo micronucleus, Test System: Normochromatic erythrocytes, Species: Mouse, Strain/Sex: B6C3F1/Male); “inactive; negative. in females, statistically significant trend test but no individual gro” (End Point: In vivo micronucleus, Test System: Normochromatic erythrocytes, Species: Mouse, Strain/Sex: B6C3F1/female); “inactive; negative” (Test System: AMES SALMONELLA TYPHIMURIUM, Strain/Indicator: TA97, Metabolic Activation: NONE); “inactive; negative” (Test System: AMES SALMONELLA TYPHIMURIUM, Strain/Indicator: TA97, Metabolic Activation: RAT, LIVER, S-9, AROCLOR 1254); “inactive; negative” under setting [1]; “inactive; negative” under setting [2]. Besides, the mutagenic call reads like this: under setting [3], “inactive; negative”; under setting [4], “inactive; negative”; under setting [5], “inactive; negative”; under setting [6], “inactive; negative”; (Test System: Ames Salmonella typhimurium, Strain/Indicator: TA98, Metabolic Activation: Hamster, Liver, S9, Aroclor 1254 (30%), Method: Preincubation) “inactive; negative. authors judged results as equivocal”; (Test System: Ames Salmonella typhimurium, Strain/Indicator: TA98, Metabolic Activation: Rat, Liver, S9, Aroclor 1254 (30%), Method: Preincubation) “inactive; negative. precipitate at highest dose”. Further, the mutagenic call runs as follows: (Test System: Ames Salmonella typhimurium, Strain/Indicator: TA100, Metabolic Activation: Hamster, Liver, S9, Aroclor 1254 (30%), Method: Preincubation) “inactive; negative”; (Test System: Ames Salmonella typhimurium, Strain/Indicator: TA100, Metabolic Activation: Rat, Liver, S9, Aroclor 1254 (30%), Method: Preincubation) “inactive; negative”; (Test System: Ames Salmonella typhimurium, Strain/Indicator: TA1535, Metabolic Activation: None, Method: Preincubation) “inactive; negative”.

For `Oc1cc(Cl)c(O)cc1Cl`, the mutagenic call is, setting by setting: under setting [1], “inactive; negative”; under setting [2], “inactive; negative”; under setting [3], “inactive; negative”; under setting [4], “inactive; negative”; under setting [5], “inactive; negative”; under setting [6], “inactive; negative”. Also, the mutagenic call by setting is: (Test System: AMES SALMONELLA TYPHIMURIUM, Strain/Indicator: TA104, Metabolic Activation: NONE) “inactive; negative”; (Test System: AMES SALMONELLA TYPHIMURIUM, Strain/Indicator: TA104, Metabolic Activation: RAT, LIVER, S-9, AROCLOR 1254) “inactive; negative”.

In the case of `CCCCCc1ccco1`, the mutagenic call was “inactive; negative” (Test System: CHINESE HAMSTER V-79, Strain/Indicator: V-79 (HPRT)/6-THIOGUANINE, Metabolic Activation: NONE, Method: STANDARD PLATE) and “inactive; negative” (Test System: CHINESE HAMSTER V-79, Strain/Indicator: V-79 (HPRT)/6-THIOGUANINE, Metabolic Activation: RAT LIVER S-9, Method: STANDARD PLATE).

In the case of `O=C1C=C[C@]2(O)c3c(ccc(O)c31)-c1ccc(O)c3c1[C@H]2C1OC1C3=O` (stereo partly specified), the mutagenic call under setting [7] was “active; positive”; the mutagenic call (Test System: AMES SALMONELLA TYPHIMURIUM, Strain/Indicator: TA98, Metabolic Activation: RAT, LIVER, S-9, AROCLOR 1254, Method: STANDARD PLATE) was “active; positive”; the mutagenic call under setting [8] was “active; positive”; the mutagenic call (Test System: AMES SALMONELLA TYPHIMURIUM, Strain/Indicator: TA100, Metabolic Activation: RAT, LIVER, S-9, AROCLOR 1254, Method: STANDARD PLATE) is “active; positive”; the mutagenic call under setting [9] was “inactive; negative”; the mutagenic call (Test System: AMES SALMONELLA TYPHIMURIUM, Strain/Indicator: TA1535, Metabolic Activation: RAT, LIVER, S-9, AROCLOR 1254, Method: STANDARD PLATE) is “inactive; negative”. Further, the mutagenic call reads like this: under setting [10], “active; positive”; (Test System: AMES SALMONELLA TYPHIMURIUM, Strain/Indicator: TA1537, Metabolic Activation: RAT, LIVER, S-9, AROCLOR 1254, Method: STANDARD PLATE) “active; positive”.

For the compound `CC(C)(Oc1ccc(C(=O)c2ccc(Cl)cc2)cc1)C(=O)O`, the mutagenic call under setting [7] was “inactive; negative”; the mutagenic call (Test System: AMES SALMONELLA TYPHIMURIUM, Strain/Indicator: TA98, Metabolic Activation: RAT, LIVER, S-9, PHENOBARBITAL AND 5,6-BENZOFLAVONE, Method: STANDARD PLATE) was “inactive; negative”; the mutagenic call under setting [8] is “inactive; negative”; the mutagenic call (Test System: AMES SALMONELLA TYPHIMURIUM, Strain/Indicator: TA100, Metabolic Activation: RAT, LIVER, S-9, PHENOBARBITAL AND 5,6-BENZOFLAVONE, Method: STANDARD PLATE) was “inactive; negative”; the mutagenic call under setting [9] was “inactive; negative”; the mutagenic call (Test System: AMES SALMONELLA TYPHIMURIUM, Strain/Indicator: TA1535, Metabolic Activation: RAT, LIVER, S-9, PHENOBARBITAL AND 5,6-BENZOFLAVONE, Method: STANDARD PLATE) was “inactive; negative”. For the same compound, the mutagenic call runs as follows: under setting [10], “inactive; negative”; (Test System: AMES SALMONELLA TYPHIMURIUM, Strain/Indicator: TA1537, Metabolic Activation: RAT, LIVER, S-9, PHENOBARBITAL AND 5,6-BENZOFLAVONE, Method: STANDARD PLATE) “inactive; negative”; (Test System: E. COLI, Strain/Indicator: WP2 UVRA, Metabolic Activation: NONE, Method: STANDARD PLATE) “inactive; negative”; (Test System: E. COLI, Strain/Indicator: WP2 UVRA, Metabolic Activation: RAT, LIVER, S-9, PHENOBARBITAL AND 5,6-BENZOFLAVONE, Method: STANDARD PLATE) “inactive; negative”.

In the case of `COC(=O)C1Cc2c([nH]c3ccc([N+](=O)[O-])cc23)C(C)N1N=O` (stereo unspecified), the mutagenic call was “active; positive” (Test System: AMES SALMONELLA TYPHIMURIUM, Strain/Indicator: TA98(NR), Metabolic Activation: NONE, Method: STANDARD PLATE) and “inactive; negative” (Test System: AMES SALMONELLA TYPHIMURIUM, Strain/Indicator: TA98(NR), Metabolic Activation: RAT, LIVER, S-9, AROCLOR 1254, Method: STANDARD PLATE).

With `Cc1ccc(N)c(Cl)c1`, the mutagenic call (Test System: UDS RODENT HEPATOCYTES, Strain/Indicator: THY INCORP (NON-S-PHASE), Metabolic Activation: NONE, Method: AUTORADIOGRAPHY) was “active; positive”.

These data come from PubChem BioAssay AID1259407 (Chemical Carcinogenesis Research Information System (CCRIS), 2018).
